Assay [1] deals with GDP-bound NRAS wild-type protein (Homo sapiens, UniProt P01111). As to the kind of experiment: Binding to NRAS by surface plasmon resonance (SPR), Single Cycle Kinetics. Particulars: KD ratio NRAS/KRAS, SPR. Background: Surface plasmon resonance follows binding to a sensor surface in real time, without labels.
The target of assay [2] is GDP-bound HRAS wild-type protein (Homo sapiens, UniProt P01112). As to the kind of experiment: Binding to HRAS by surface plasmon resonance (SPR), Single Cycle Kinetics. The conditions noted are these: KD ratio HRAS/KRAS, SPR.

*1 amine or outer side, *2 acyl side, *3 side chain or, on linkers, in order; H or OH if unused. Where a SMILES comes first, the peptide text is derived from it. Bridges are numbered along the chain shown (N, C = ends). [ ]: non-standard residue; d: D form. The star is where a group is joined. hPhe(3,5-F2-4-CF3) = N[C@@H](CCc1cc(F)c(C(F)(F)F)c(F)c1)C(=O)O; NPrPhe(4-CF3) = CCCN[C@@H](Cc1ccc(C(F)(F)F)cc1)C(=O)O; NMeAbu(4,4,4-F3) = CN[C@@H](CC(F)(F)F)C(=O)O; X16 = O=C([C@@H](N[*:1])C1CC(F)(F)C1)[*:2]; NMeGly(cPent) = CN[C@H](C(=O)O)C1CCCC1; Ac4c(3,3-F2) = NC1(C(=O)O)CC(F)(F)C1; Nva(3-Et) = CCC(CC)[C@H](N)C(=O)O; NMeD = CN[C@@H](CC(=O)O)C(=O)O; NMeL = CN[C@@H](CC(C)C)C(=O)O; Iva = CC[C@](C)(N)C(=O)O; Morpholide = C1CN(*)CCO1; Ac5c = NC1(C(=O)O)CCCC1; Aze = O=C(O)[C@@H]1CCN1; Sar = CNCC(=O)O

GDP-bound HRAS wild-type protein, sequence (P01112 whole entry): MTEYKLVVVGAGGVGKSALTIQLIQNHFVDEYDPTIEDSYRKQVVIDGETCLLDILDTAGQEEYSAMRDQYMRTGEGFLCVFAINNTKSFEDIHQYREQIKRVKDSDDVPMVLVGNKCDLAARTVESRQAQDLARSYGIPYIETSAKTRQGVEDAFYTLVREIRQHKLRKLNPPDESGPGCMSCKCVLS
GDP-bound NRAS wild-type protein, sequence (P01111 whole entry): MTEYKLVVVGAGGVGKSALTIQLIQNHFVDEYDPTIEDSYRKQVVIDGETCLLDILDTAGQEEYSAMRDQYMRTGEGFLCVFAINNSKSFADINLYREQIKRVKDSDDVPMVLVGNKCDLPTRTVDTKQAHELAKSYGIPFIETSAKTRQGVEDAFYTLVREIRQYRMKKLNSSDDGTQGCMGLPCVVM

In the case of `CCCN1C(=O)CN(C)C(=O)[C@@H]2CCN2C(=O)[C@H]([C@@H](C)CC)NC(=O)[C@H](CC(C)C)N(C)C(=O)C[C@@H](C(=O)N2CCOCC2)N(C)C(=O)[C@H](C2CCCC2)N(C)C(=O)C2(CC(F)(F)C2)NC(=O)[C@@H]2CCCN2C(=O)[C@H](CCc2cc(F)c(C(F)(F)F)c(F)c2)NC(=O)CN(C)C(=O)[C@@H]1Cc1ccc(C(F)(F)F)cc1` [PP0783] ([NMeL]I[Aze][Sar][NPrPhe(4-CF3)][Sar][hPhe(3,5-F2-4-CF3)]P[Ac4c(3,3-F2)][NMeGly(cPent)][NMeD]-Morpholide; lactam N-11), in assay [1], the “NRAS/KRAS (ratio of KD value with respect to GDP-bound NRAS wild-type protein to KD value with respect to KRAS)” value was “B (a compound having 3 or more and less than 10 is denoted as B)”. The “HRAS/KRAS (ratio of KD value with respect to GDP-bound HRAS wild-type protein to KD value with respect to KRAS)” value in assay [2] was “B (a compound having 3 or more and less than 10 is denoted as B)”.
Take `CCCN1C(=O)CN(C)C(=O)[C@@H]2CCN2C(=O)[C@H]([C@@H](C)CC)NC(=O)[C@H](CC(C)C)N(C)C(=O)C[C@@H](C(=O)N2CCOCC2)N(C)C(=O)[C@H](CC(F)(F)F)N(C)C(=O)C2(CCCC2)NC(=O)[C@@H]2CCCN2C(=O)[C@H](CCc2cc(F)c(C(F)(F)F)c(F)c2)NC(=O)CN(C)C(=O)[C@@H]1Cc1ccc(C(F)(F)F)cc1` [PP0784] ([NMeL]I[Aze][Sar][NPrPhe(4-CF3)][Sar][hPhe(3,5-F2-4-CF3)]P[Ac5c][NMeAbu(4,4,4-F3)][NMeD]-Morpholide; lactam N-11): the “NRAS/KRAS (ratio of KD value with respect to GDP-bound NRAS wild-type protein to KD value with respect to KRAS)” value in assay [1] was “B (a compound having 3 or more and less than 10 is denoted as B)”. Moreover, the “HRAS/KRAS (ratio of KD value with respect to GDP-bound HRAS wild-type protein to KD value with respect to KRAS)” value in assay [2] was “B (a compound having 3 or more and less than 10 is denoted as B)”.
Turning to `CCCN1C(=O)CN(C)C(=O)[C@@H]2CCN2C(=O)[C@H](C(CC)CC)NC(=O)[C@H](CC(C)C)N(C)C(=O)C[C@@H](C(=O)N2CCOCC2)N(C)C(=O)[C@H](C2CCCC2)N(C)C(=O)C2(CCCC2)NC(=O)[C@@H]2CCCN2C(=O)[C@H](CCc2cc(F)c(C(F)(F)F)c(F)c2)NC(=O)CN(C)C(=O)[C@@H]1Cc1ccc(C(F)(F)F)cc1` [PP0785] ([NMeL][Nva(3-Et)][Aze][Sar][NPrPhe(4-CF3)][Sar][hPhe(3,5-F2-4-CF3)]P[Ac5c][NMeGly(cPent)][NMeD]-Morpholide; lactam N-11), the “NRAS/KRAS (ratio of KD value with respect to GDP-bound NRAS wild-type protein to KD value with respect to KRAS)” value in assay [1] was “B (a compound having 3 or more and less than 10 is denoted as B)”. Further, the “HRAS/KRAS (ratio of KD value with respect to GDP-bound HRAS wild-type protein to KD value with respect to KRAS)” value in assay [2] was “B (a compound having 3 or more and less than 10 is denoted as B)”.
For `CCCN1C(=O)CN(C)C(=O)[C@@H]2CCN2C(=O)[C@H](C2CC(F)(F)C2)NC(=O)[C@H](CC(C)C)N(C)C(=O)C[C@@H](C(=O)N2CCOCC2)N(C)C(=O)[C@H](C2CCCC2)N(C)C(=O)C2(CCCC2)NC(=O)[C@@H]2CCCN2C(=O)[C@H](CCc2cc(F)c(C(F)(F)F)c(F)c2)NC(=O)CN(C)C(=O)[C@@H]1Cc1ccc(C(F)(F)F)cc1` [PP0786] ([NMeL][X16][Aze][Sar][NPrPhe(4-CF3)][Sar][hPhe(3,5-F2-4-CF3)]P[Ac5c][NMeGly(cPent)][NMeD]-Morpholide; lactam N-11), in assay [1], the “NRAS/KRAS (ratio of KD value with respect to GDP-bound NRAS wild-type protein to KD value with respect to KRAS)” value is “B (a compound having 3 or more and less than 10 is denoted as B)”. In assay [2], the “HRAS/KRAS (ratio of KD value with respect to GDP-bound HRAS wild-type protein to KD value with respect to KRAS)” value was “B (a compound having 3 or more and less than 10 is denoted as B)”.
On to `CCCN1C(=O)[C@@H]2CCN2C(=O)CN(C)C(=O)[C@H](C2CC(F)(F)C2)NC(=O)[C@H](CC(C)C)N(C)C(=O)C[C@@H](C(=O)N2CCOCC2)N(C)C(=O)[C@H](C2CCCC2)N(C)C(=O)C2(CCCC2)NC(=O)[C@@H]2CCCN2C(=O)[C@H](CCc2cc(F)c(C(F)(F)F)c(F)c2)NC(=O)CN(C)C(=O)[C@@H]1Cc1ccc(C(F)(F)F)cc1` [PP0787] ([NMeL][X16][Sar][Aze][NPrPhe(4-CF3)][Sar][hPhe(3,5-F2-4-CF3)]P[Ac5c][NMeGly(cPent)][NMeD]-Morpholide; lactam N-11), for which the “NRAS/KRAS (ratio of KD value with respect to GDP-bound NRAS wild-type protein to KD value with respect to KRAS)” value in assay [1] is “C (A compound having a KD ratio of 0.1 or more and less than 3 is denoted as C)”. Moreover, in assay [2], the “HRAS/KRAS (ratio of KD value with respect to GDP-bound HRAS wild-type protein to KD value with respect to KRAS)” value is “B (a compound having 3 or more and less than 10 is denoted as B)”.
With `CCCN1C(=O)CN(C)C(=O)CN(C)C(=O)[C@H]([C@@H](C)CC)NC(=O)[C@H](CC(C)C)N(C)C(=O)C[C@@H](C(=O)N(C)C)N(C)C(=O)[C@H](C2CCCC2)N(C)C(=O)C2(CCCC2)NC(=O)[C@@H]2CCCN2C(=O)[C@H](CCc2cc(F)c(C(F)(F)F)c(F)c2)NC(=O)CN(C)C(=O)[C@@H]1Cc1ccc(C(F)(F)F)cc1` [PP0788] ([NMeL]I[Sar][Sar][NPrPhe(4-CF3)][Sar][hPhe(3,5-F2-4-CF3)]P[Ac5c][NMeGly(cPent)][NMeD]-NMe2; lactam N-11), the “NRAS/KRAS (ratio of KD value with respect to GDP-bound NRAS wild-type protein to KD value with respect to KRAS)” value in assay [1] is “B (a compound having 3 or more and less than 10 is denoted as B)”. Besides, in assay [2], the “HRAS/KRAS (ratio of KD value with respect to GDP-bound HRAS wild-type protein to KD value with respect to KRAS)” value was “C (A compound having a KD ratio of 0.1 or more and less than 3 is denoted as C)”.
As to `CCCN1C(=O)[C@@H]2CCN2C(=O)CN(C)C(=O)[C@H]([C@@H](C)CC)NC(=O)[C@H](CC(C)C)N(C)C(=O)C[C@@H](C(=O)N2CCOCC2)N(C)C(=O)[C@H](C2CCCC2)N(C)C(=O)C2(CCCC2)NC(=O)[C@@H]2CCCN2C(=O)[C@H](CCc2cc(F)c(C(F)(F)F)c(F)c2)NC(=O)CN(C)C(=O)[C@@H]1Cc1ccc(C(F)(F)F)cc1` [PP0789] ([NMeL]I[Sar][Aze][NPrPhe(4-CF3)][Sar][hPhe(3,5-F2-4-CF3)]P[Ac5c][NMeGly(cPent)][NMeD]-Morpholide; lactam N-11), in assay [1], the “NRAS/KRAS (ratio of KD value with respect to GDP-bound NRAS wild-type protein to KD value with respect to KRAS)” value was “C (A compound having a KD ratio of 0.1 or more and less than 3 is denoted as C)”. Moreover, in assay [2], the “HRAS/KRAS (ratio of KD value with respect to GDP-bound HRAS wild-type protein to KD value with respect to KRAS)” value was “B (a compound having 3 or more and less than 10 is denoted as B)”.
As for `CCCN1C(=O)[C@@H]2CCN2C(=O)CN(C)C(=O)[C@H]([C@@H](C)CC)NC(=O)[C@H](CC(C)C)N(C)C(=O)C[C@@H](C(=O)N2CCOCC2)N(C)C(=O)[C@H](C2CCCC2)N(C)C(=O)[C@](C)(CC)NC(=O)[C@@H]2CCCN2C(=O)[C@H](CCc2cc(F)c(C(F)(F)F)c(F)c2)NC(=O)CN(C)C(=O)[C@@H]1Cc1ccc(C(F)(F)F)cc1` [PP0790] ([NMeL]I[Sar][Aze][NPrPhe(4-CF3)][Sar][hPhe(3,5-F2-4-CF3)]P[Iva][NMeGly(cPent)][NMeD]-Morpholide; lactam N-11), the “NRAS/KRAS (ratio of KD value with respect to GDP-bound NRAS wild-type protein to KD value with respect to KRAS)” value in assay [1] was “C (A compound having a KD ratio of 0.1 or more and less than 3 is denoted as C)”. Moreover, the “HRAS/KRAS (ratio of KD value with respect to GDP-bound HRAS wild-type protein to KD value with respect to KRAS)” value in assay [2] is “B (a compound having 3 or more and less than 10 is denoted as B)”.

(Values after patent US20250230193A1, “CYCLIC COMPOUND HAVING SELECTIVE KRAS INHIBITORY EFFECT ON HRAS AND NRAS” (CHUGAI SEIYAKU KABUSHIKI KAISHA, priority 2022, published 2025).)
